Assay results published in patent US11738099B2, “Molecular probes and methods of use” (CASE WESTERN RESERVE UNIVERSITY, priority 2014, dated 2023).
“Also recorded” adds a separate entry of the source. Where a SMILES comes first, the peptide text is derived from it. The star is where a group is joined. X1 = O=C(O)CN1CCN(CC(=O)O)CCN(CC(O)Cn2cc(CCCC(=O)*)nn2)CCN(CC(=O)O)CC1; PEG2 = NCCOCCOCCC(=O)O

How the values were obtained:
[1] = tested on: PC3 prostate tumor xenografts; assay: T1-weighted MRI at 1 Tesla, PC3 tumors (Example 3); format: in vivo, mouse
Description: (§1) Male athymic nude mice were purchased from Case Comprehensive Cancer Center (Cleveland, Ohio, USA) and housed in the Animal Core Facility at Case Western Reserve University. All animal experiments were performed in accordance with the animal protocol approved by the CWRU Institutional Animal Care and Use Committee. Athymic nude male mice were subcutaneously injected with 100 μL cell suspension (4×10^7 cells/mL) in matrigel matrix (Corning Bioscience, Corning, N.Y.) to initiate tumors. Mice with tumors of 5-8 mm in diameter were used for imaging studies.
(§2) MR images of tumor bearing mice were acquired on an Aspect M3 small animal MRI scanner (1 Tesla). Mice were placed on a holder with the temperature maintained at 37° C., with isoflurane/oxygen mixture supplied to the mice through a nose cone. A thin catheter filled with PBS was connected to a tail vein of the mice. After mice were placed in the coil, a pilot scan was performed to adjust mice to the proper location in the coil. An axial T1 weighted sequence (TR=500 ms; TE=9 ms; Flip angle=90°; Field of view=3 cm×3 cm; Matrix size=128×128×8; slice thickness=2 mm; interslice distance=1 mm) was then used to acquire the images of the tumors before and 10 min, 20 min and 30 min after contrast injection. Images were exported into DICOM data, which were then processed and analyzed using Matlab (Natick, Mass., USA). The contrast to-noise ratio of tumors in the images were calculated as the difference between tumor mean intensity minus muscle mean intensity, divided by the noise.

[2] = tested on: 4T1 metastatic tumors; assay: MRI of breast cancer metastatic tumor model; format: in vivo, mouse
Description: In order to construct a metastatic tumor model, 0.2×10^6 4T1 tumor cells undergone 5 days of TGFβ induction were injected through left ventricle of heart, resulting in the spread of tumor cells primarily in brain, lung, liver, lymph node, adrenal gland, chest, and bone marrow. Bioluminescent images of the mice at two weeks were used to monitor the growth of tumors. To assess the targeting capacity of l-ZD2-Cy5, brain and lung were harvested from the mice three hours after 10 nmol l-ZD2-Cy5 were injected. […] Normal brain and lung harvested from normal mice injected with l-ZD2-Cy5 were used as negative controls. Examination of bigger metastatic tumors in lymph nodes and adrenal gland, as shown in FIG. 8B further backed up the targeting efficiency of l-ZD2-Cy5.
Breast cancer metastatic tumor model was imaged at two weeks in order to validate the properties of l-ZD2-Gd(HP-DO3A) in detecting breast cancer micrometastases. In FIG. 9A, a mouse developed with metastatic tumors in lymph nodes, adrenal glands, and chest was imaged in MRI after l-ZD2-Gd(HP-DO3A) injection, in conjugation with BLI validation of tumor positions.

[3] = In vivo transmetallation and urinary excretion; parameters: species or system mouse; details: 0.1 mmol-Gd/kg
Description: Balb/c mice (Charles River Laboratories, Wilmington, Mass., USA) were randomly divided into groups of ZD2-Gd(HP-DO3A) and ProHance (n=5) and placed in the metabolism cages, 48 hours prior to injection. […] Urine samples were collected at 12 h pre-injection, and then 8, 24, 48, and 72 h post-injection from the metabolic box. The collected urine samples were centrifuged at 4,000 rpm for 15 min. The concentration of Gd(III), Zn(II), Cu(H), and Ca(II) in the supernatant of the urine samples was determined by ICP-OES after appropriate dilutions.

[4] = tested on: LNCaP prostate tumor xenografts; assay: T1-weighted MRI at 1 Tesla, LNCaP tumors (Example 3); format: in vivo, mouse; details: 0.1 mmol/kg i.v., up to 30 min
Description: as §1
as §2, with “An axial T1 weighted sequence (TR=500 ms; TE=9 ms; Flip angle=90°; Field of view=3 cm×3 cm; Matrix size=128×128×8; slice thickness=2 mm; interslice distance=1 mm) was then used to acquire the images of the tumors before and 10 min, 20 min and 30 min after contrast injection.” left out

For `CC(C)[C@H](NC(=O)[C@@H](NC(=O)CCOCCOCCNC(=O)CCCc1cn(CC(O)CN2CCN(CC(=O)O)CCN(CC(=O)O)CCN(CC(=O)O)CC2)nn1)[C@@H](C)O)C(=O)N[C@@H](CCCNC(=N)N)C(=O)N[C@H](C(=O)N[C@@H](CO)C(=O)N[C@@H](C)C(=O)N[C@@H](CC(=O)O)C(=O)O)[C@@H](C)O` (stereo partly shown) [ZD2-Gd(HP-DO3A)] ({X1-PEG2}-TVRTSAD-OH), the “signal enhancement in PC3 tumors” value ([1]; 0.1 mmol/kg i.v., up to 30 min, 1 Tesla) was “Strong signal enhancement”, the “increase of contrast-to-noise ratio (CNR) in PC3 tumors” value ([1]; 10 min after injection) was “over two-fold increase” and the “tumor enhancement in MRI” value ([2]; metastatic tumors at two weeks) was “All five tumors indicated in BLI showed enhancement in MRI”. The “signal enhancement in tumor by CNR measurement” value ([2]; tumor vs liver, kidney, bladder, muscle) was “significant higher signal enhancement”, the “urine concentration of endogenous metal ions post-injection vs pre-injection” value [3] was “without any significant increase” and the dose excreted ([3]; mouse, in vivo, iv, within 24 hours post-injection, read-out: injected dose excreted in urine) was > 95%. For the same compound, the “signal enhancement in LNCaP tumors” value [4] was “significantly lower signal enhancement; also recorded: did not produce significant contrast enhancement”.
